Measured values reported in US9073855B2, “BCL-2 selective apoptosis-inducing agents for the treatment of cancer and immune diseases” (AbbVie Inc., priority 2008, dated 2015).
pKi: −log10 of the molar value.

How the values were obtained:
[1] = target: GST-Bcl-XL (Homo sapiens, UniProt Q07817); test: TR-FRET binding assay, GST-Bcl-XL with F-Bak peptide probe; conditions: TR-FRET Binding Affinity
Method in brief: (§1)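 Compounds were serially diluted in DMSO from a 50 μM starting solution (2× the starting concentration; 10% DMSO). Plates were incubated for 3 h at room temperature, and TR-FRET was read with 340/35 nm excitation and emission at 520/525 nm (F-Bak) and 495/510 nm (Tb antibody). Ki values were calculated using Wang's competitive-binding equation.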

[2] = target: GST-Bcl-2 (Homo sapiens, UniProt P10415); test: TR-FRET binding assay, GST-Bcl-2 with F-Bak peptide probe; conditions: for pKi: TR-FRET Binding Affinity
GST-Bcl-2, sequence (P10415 whole entry): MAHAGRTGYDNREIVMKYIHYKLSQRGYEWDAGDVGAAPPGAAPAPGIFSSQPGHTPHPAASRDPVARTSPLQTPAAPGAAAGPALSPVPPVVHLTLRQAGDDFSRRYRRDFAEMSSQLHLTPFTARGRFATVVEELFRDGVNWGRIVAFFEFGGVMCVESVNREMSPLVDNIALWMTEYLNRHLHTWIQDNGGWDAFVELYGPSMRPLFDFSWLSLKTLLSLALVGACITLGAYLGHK
Method in brief: as §1

[3] = GST-Bcl-XL, F-Bak peptide probe
[4] = ratio of TR-FRET Ki values, Bcl-XL over Bcl-2
[5] = TR-FRET, Bcl-XL Ki divided by Bcl-2 Ki

GST-Bcl-XL, sequence (Q07817 whole entry): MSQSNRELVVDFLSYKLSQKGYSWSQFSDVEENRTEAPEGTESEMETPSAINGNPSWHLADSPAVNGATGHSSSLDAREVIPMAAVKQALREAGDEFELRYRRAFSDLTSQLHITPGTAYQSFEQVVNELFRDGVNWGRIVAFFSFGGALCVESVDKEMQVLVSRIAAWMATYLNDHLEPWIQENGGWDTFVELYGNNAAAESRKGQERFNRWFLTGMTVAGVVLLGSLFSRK

## CN(C)CC(=O)N1CCO[C@H](COc2ncc(S(=O)(=O)NC(=O)c3ccc(N4CCN(CC5=C(c6ccc(Cl)cc6)CC(C)(C)CC5)CC4)cc3Oc3cccc4[nH]ncc34)cc2Cl)C1 [Example 425, N-[(5-chloro-6-{[(2S)-4-(N,N-dimethylglycyl)morpholin-2-yl]methoxy}pyridin-3-yl)sulfonyl]-4-(4-{[2-(4-chlorophenyl)-4,4-dimethylcyclohex-1-en-1-yl]methyl}piperazin-1-yl)-2-(1H-indazol-4-yloxy)benzamide]
[1]; [3]
  pKi: 8.40
[2]; GST-Bcl-2, F-Bak peptide probe
  pKi: 11.52
[2]; [4]
  Binding selectivity ratio (Bcl-XL Ki/Bcl-2 Ki): 1282.2

## CN(C)CCCNc1ccc(S(=O)(=O)NC(=O)c2ccc(N3CCN(Cc4ccccc4-c4ccc(Cl)cc4)CC3)cc2Oc2ccccc2)cc1C(F)(F)F [Example 92, 4-{4-[(4′-chloro-1,1′-biphenyl-2-yl)methyl]piperazin-1-yl}-N-{[4-{[3-(dimethylamino)propyl]amino}-3-(trifluoromethyl)phenyl]sulfonyl}-2-phenoxybenzamide]
[1]; [3]
  pKi: 6.46
[2]; GST-Bcl-2, F-Bak peptide probe
  pKi: 8.36

## CC1(C)CCC(CN2CCN(c3ccc(C(=O)NS(=O)(=O)c4ccc(NN5CCN(CCO)CC5)c([N+](=O)[O-])c4)c(Oc4ccc5[nH]ccc5c4)c3)CC2)=C(c2ccc(Cl)cc2)C1 [Example 233, 4-(4-{[2-(4-chlorophenyl)-4,4-dimethylcyclohex-1-en-1-yl]methyl}piperazin-1-yl)-N-[(4-{[4-(2-hydroxyethyl)piperazin-1-yl]amino}-3-nitrophenyl)sulfonyl]-2-(1H-indol-5-yloxy)benzamide]
[1]; [3]
  pKi: < 6.18
[2]; GST-Bcl-2, F-Bak peptide probe
  pKi: 9.61

## CC1(C)CCC(CN2CCN(c3ccc(C(=O)NS(=O)(=O)c4cnc(OCC5(F)CCC(C)(O)CC5)c(Cl)c4)c(Oc4cccc5[nH]ncc45)c3)CC2)=C(c2ccc(Cl)cc2)C1 (stereo not drawn) [Example 512, N-({5-chloro-6-[(cis-1-fluoro-4-hydroxy-4-methylcyclohexyl)methoxy]pyridin-3-yl}sulfonyl)-4-(4-{[2-(4-chlorophenyl)-4,4-dimethylcyclohex-1-en-1-yl]methyl}piperazin-1-yl)-2-(1H-indazol-4-yloxy)benzamide]
[1]
  pKi: 7.76
[2]
  pKi: > 11.00
[2]; [5]
  Binding selectivity ratio (Bcl-XL Ki/Bcl-2 Ki): >1733.8

## CC1(C)CCC(CN2CCN(c3ccc(C(=O)NS(=O)(=O)c4cnc(OCC5(F)CCOCC5)c(F)c4)c(Oc4cccc5[nH]cnc45)c3)CC2)=C(c2ccc(Cl)cc2)C1 [Example 442, 2-(1H-benzimidazol-4-yloxy)-4-(4-{[2-(4-chlorophenyl)-4,4-dimethylcyclohex-1-en-1-yl]methyl}piperazin-1-yl)-N-({5-fluoro-6-[(4-fluorotetrahydro-2H-pyran-4-yl)methoxy]pyridin-3-yl}sulfonyl)benzamide]
[1]
  pKi: 7.47
[2]
  pKi: > 11.00

## CN1CCC(Nc2ccc(S(=O)(=O)NC(=O)c3ccc(N4CCN(CC5=C(c6ccc(Cl)cc6)CC(C)(C)CC5)CC4)cc3Oc3cccc4c3CCN4)cc2[N+](=O)[O-])CC1 [Example 395, 4-(4-{[2-(4-chlorophenyl)-4,4-dimethylcyclohex-1-en-1-yl]methyl}piperazin-1-yl)-2-(2,3-dihydro-1H-indol-4-yloxy)-N-({4-[(1-methylpiperidin-4-yl)amino]-3-nitrophenyl}sulfonyl)benzamide]
[1]; [3]
  pKi: 7.72
[2]; GST-Bcl-2, F-Bak peptide probe
  pKi: 9.10
[2]; [4]
  Binding selectivity ratio (Bcl-XL Ki/Bcl-2 Ki): 23.6

## CC1(C)CCC(CN2CCN(c3ccc(C(=O)NS(=O)(=O)c4cnc(NC5CCN(C6CC6)CC5)c(Cl)c4)c(Oc4cccc5[nH]ncc45)c3)CC2)=C(c2ccc(Cl)cc2)C1 [Example 448, N-({5-chloro-6-[(1-cyclopropylpiperidin-4-yl)amino]pyridin-3-yl}sulfonyl)-4-(4-{[2-(4-chlorophenyl)-4,4-dimethylcyclohex-1-en-1-yl]methyl}piperazin-1-yl)-2-(1H-indazol-4-yloxy)benzamide]
[1]
  pKi: 7.84
[2]
  pKi: 11.30
[2]; [5]
  Binding selectivity ratio (Bcl-XL Ki/Bcl-2 Ki): 3119.3
